Measured values taken from PubChem BioAssay (NCI).
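Cells were grown in 96-well plates and exposed to each compound for 48 hours at five concentrations; endpoints were interpolated linearly between bracketing concentrations, or set to the highest concentration if not reached. At the TGI there is no net growth.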

How the values were obtained:
Assay in all cases: NCI anticancer screen, dose series, 48 h
786-0 renal = system: 786-0 renal
A498 renal = system: A498 renal
A549 NSCLC = system: A549 NSCLC
ACHN renal = system: ACHN renal
BT-549 breast = system: BT-549 breast
CAKI-1 renal = system: CAKI-1 renal
CCRF-CEM leukemia = system: CCRF-CEM leukemia
COLO 205 colon = system: COLO 205 colon
DU-145 prostate = system: DU-145 prostate
EKVX NSCLC = system: EKVX NSCLC
HCC-2998 colon = system: HCC-2998 colon
HCT-116 colon = system: HCT-116 colon
HCT-15 colon = system: HCT-15 colon
HL-60(TB) leukemia = system: HL-60(TB) leukemia
HOP-62 NSCLC = system: HOP-62 NSCLC
HOP-92 NSCLC = system: HOP-92 NSCLC
HS 578T breast = system: HS 578T breast
HT29 colon = system: HT29 colon
K-562 leukemia = system: K-562 leukemia
KM12 colon = system: KM12 colon
LOX IMVI melanoma = system: LOX IMVI melanoma
M14 melanoma = system: M14 melanoma
MALME-3M melanoma = system: MALME-3M melanoma
MCF7 breast = system: MCF7 breast
MDA-MB-231 breast = system: MDA-MB-231 breast
MDA-MB-435 = system: MDA-MB-435
MDA-N = system: MDA-N
MOLT-4 leukemia = system: MOLT-4 leukemia
NCI-H226 lung = system: NCI-H226 lung
NCI-H23 lung = system: NCI-H23 lung
NCI-H460 lung = system: NCI-H460 lung
NCI-H522 lung = system: NCI-H522 lung
NCI/ADR-RES ovarian = system: NCI/ADR-RES ovarian
OVCAR-3 ovarian = system: OVCAR-3 ovarian
OVCAR-4 ovarian = system: OVCAR-4 ovarian
OVCAR-5 ovarian = system: OVCAR-5 ovarian
OVCAR-8 ovarian = system: OVCAR-8 ovarian
PC-3 prostate = system: PC-3 prostate
RPMI-8226 leukemia = system: RPMI-8226 leukemia
RXF 393 renal = system: RXF 393 renal
SF-268 CNS = system: SF-268 CNS
SF-295 CNS = system: SF-295 CNS
SF-539 CNS = system: SF-539 CNS
SK-MEL-2 melanoma = system: SK-MEL-2 melanoma
SK-MEL-28 melanoma = system: SK-MEL-28 melanoma
SK-MEL-5 melanoma = system: SK-MEL-5 melanoma
SK-OV-3 ovarian = system: SK-OV-3 ovarian
SN12C renal = system: SN12C renal
SNB-19 CNS = system: SNB-19 CNS
SNB-75 CNS = system: SNB-75 CNS
SR leukemia = system: SR leukemia
SW-620 colon = system: SW-620 colon
T-47D breast = system: T-47D breast
TK-10 renal = system: TK-10 renal
U251 CNS = system: U251 CNS
UACC-257 melanoma = system: UACC-257 melanoma
UACC-62 melanoma = system: UACC-62 melanoma
UO-31 renal = system: UO-31 renal
IGROV1 ovarian = system: IGROV1 ovarian

Clc1ccc2oc(CCC3CCCCC3)nc2c1
TGI (786-0 renal): > 100 µM | TGI (A498 renal): 82.3 µM | TGI (A549 NSCLC): > 100 µM | TGI (ACHN renal): > 100 µM | TGI (BT-549 breast): > 100 µM | TGI (CAKI-1 renal): 77.7 µM | TGI (CCRF-CEM leukemia): 70.8 µM | TGI (COLO 205 colon): 50.2 µM | TGI (DU-145 prostate): > 100 µM | TGI (EKVX NSCLC): 82.9 µM | TGI (HCC-2998 colon): 48.3 µM | TGI (HCT-116 colon): > 100 µM | TGI (HCT-15 colon): 69.2 µM | TGI (HL-60(TB) leukemia): 42.6 µM | TGI (HOP-62 NSCLC): 72.8 µM | TGI (HOP-92 NSCLC): 84.4 µM | TGI (HS 578T breast): > 100 µM | TGI (HT29 colon): 83.8 µM | TGI (K-562 leukemia): > 100 µM | TGI (KM12 colon): 70.7 µM | TGI (LOX IMVI melanoma): 25.2 µM | TGI (M14 melanoma): > 100 µM | TGI (MALME-3M melanoma): > 100 µM | TGI (MCF7 breast): 51.3 µM | TGI (MDA-MB-231 breast): > 100 µM | TGI (MDA-MB-435): 94.4 µM | TGI (MDA-N): > 100 µM | TGI (MOLT-4 leukemia): 60.7 µM | TGI (NCI-H226 lung): 57.1 µM | TGI (NCI-H23 lung): 98.5 µM | TGI (NCI-H460 lung): 59.6 µM | TGI (NCI-H522 lung): 61.2 µM | TGI (NCI/ADR-RES ovarian): > 100 µM | TGI (OVCAR-3 ovarian): 36.1 µM | TGI (OVCAR-4 ovarian): > 100 µM | TGI (OVCAR-5 ovarian): > 100 µM | TGI (OVCAR-8 ovarian): > 100 µM | TGI (PC-3 prostate): > 100 µM | TGI (RPMI-8226 leukemia): > 100 µM | TGI (RXF 393 renal): 45.1 µM | TGI (SF-268 CNS): > 100 µM | TGI (SF-295 CNS): 56.2 µM | TGI (SF-539 CNS): > 100 µM | TGI (SK-MEL-2 melanoma): 39.1 µM | TGI (SK-MEL-28 melanoma): > 100 µM | TGI (SK-MEL-5 melanoma): 35 µM | TGI (SK-OV-3 ovarian): 62.3 µM | TGI (SN12C renal): 48.6 µM | TGI (SNB-19 CNS): > 100 µM | TGI (SNB-75 CNS): 58.1 µM | TGI (SR leukemia): 61.5 µM | TGI (SW-620 colon): > 100 µM | TGI (T-47D breast): 81.7 µM | TGI (TK-10 renal): > 100 µM | TGI (U251 CNS): 43.2 µM | TGI (UACC-257 melanoma): 79.3 µM | TGI (UACC-62 melanoma): > 100 µM | TGI (UO-31 renal): 81.8 µM

COC1=C(OC)C23CCc4ccc(OC)c(O)c4C2(CCN3)CC1=O (stereo unspecified)
TGI (786-0 renal): > 100 µM | TGI (A498 renal): > 100 µM | TGI (A549 NSCLC): > 100 µM | TGI (ACHN renal): > 100 µM | TGI (BT-549 breast): > 100 µM | TGI (CAKI-1 renal): > 100 µM | TGI (CCRF-CEM leukemia): > 100 µM | TGI (COLO 205 colon): > 100 µM | TGI (DU-145 prostate): > 100 µM | TGI (EKVX NSCLC): > 100 µM | TGI (HCC-2998 colon): > 100 µM | TGI (HCT-116 colon): > 100 µM | TGI (HCT-15 colon): > 100 µM | TGI (HL-60(TB) leukemia): > 100 µM | TGI (HOP-62 NSCLC): > 100 µM | TGI (HOP-92 NSCLC): > 100 µM | TGI (HS 578T breast): > 100 µM | TGI (HT29 colon): > 100 µM | TGI (IGROV1 ovarian): > 100 µM | TGI (K-562 leukemia): > 100 µM | TGI (KM12 colon): > 100 µM | TGI (LOX IMVI melanoma): > 100 µM | TGI (M14 melanoma): > 100 µM | TGI (MALME-3M melanoma): > 100 µM | TGI (MCF7 breast): > 100 µM | TGI (MDA-MB-231 breast): > 100 µM | TGI (MDA-MB-435): > 100 µM | TGI (MDA-N): > 100 µM | TGI (MOLT-4 leukemia): > 100 µM | TGI (NCI-H226 lung): > 100 µM | TGI (NCI-H23 lung): > 100 µM | TGI (NCI-H460 lung): > 100 µM | TGI (NCI-H522 lung): > 100 µM | TGI (NCI/ADR-RES ovarian): > 100 µM | TGI (OVCAR-3 ovarian): > 100 µM | TGI (OVCAR-4 ovarian): > 100 µM | TGI (OVCAR-5 ovarian): > 100 µM | TGI (OVCAR-8 ovarian): > 100 µM | TGI (PC-3 prostate): > 100 µM | TGI (RPMI-8226 leukemia): > 100 µM | TGI (RXF 393 renal): > 100 µM | TGI (SF-268 CNS): > 100 µM | TGI (SF-295 CNS): > 100 µM | TGI (SF-539 CNS): > 100 µM | TGI (SK-MEL-2 melanoma): > 100 µM | TGI (SK-MEL-28 melanoma): > 100 µM | TGI (SK-MEL-5 melanoma): > 100 µM | TGI (SK-OV-3 ovarian): > 100 µM | TGI (SN12C renal): > 100 µM | TGI (SNB-19 CNS): > 100 µM | TGI (SNB-75 CNS): > 100 µM | TGI (SR leukemia): > 100 µM | TGI (SW-620 colon): > 100 µM | TGI (T-47D breast): > 100 µM | TGI (TK-10 renal): > 100 µM | TGI (U251 CNS): > 100 µM | TGI (UACC-257 melanoma): > 100 µM | TGI (UACC-62 melanoma): > 100 µM
